Assay results: patent publication US20220017468A1, “ISOQUINOLINE COMPOUNDS AND THEIR USE IN TREATING AhR IMBALANCE” (Dermavant Sciences GmbH, priority 2020, published 2022)

What was measured:
[1] = test system: primary human cell culture platforms; experiment: BioMAP Diversity Plus profiling; assay type: cell-based; conditions: profiles overlaid
[2] = target: T1, AhR (Homo sapiens, UniProt P35869); experiment: CYP1A1-bla LS-180 AhR agonist assay; assay type: cell-based; conditions: CYP1A1-bla LS-180 cells, ~20 hrs
T1 construct: LS-180 cells stably transfected with a CYP1A1 promoter-linked beta-lactamase gene reporter construct; endogenous in cells; host or cells: CYP1A1-bla LS-180 cells
T1 sequence (P35869 11-848): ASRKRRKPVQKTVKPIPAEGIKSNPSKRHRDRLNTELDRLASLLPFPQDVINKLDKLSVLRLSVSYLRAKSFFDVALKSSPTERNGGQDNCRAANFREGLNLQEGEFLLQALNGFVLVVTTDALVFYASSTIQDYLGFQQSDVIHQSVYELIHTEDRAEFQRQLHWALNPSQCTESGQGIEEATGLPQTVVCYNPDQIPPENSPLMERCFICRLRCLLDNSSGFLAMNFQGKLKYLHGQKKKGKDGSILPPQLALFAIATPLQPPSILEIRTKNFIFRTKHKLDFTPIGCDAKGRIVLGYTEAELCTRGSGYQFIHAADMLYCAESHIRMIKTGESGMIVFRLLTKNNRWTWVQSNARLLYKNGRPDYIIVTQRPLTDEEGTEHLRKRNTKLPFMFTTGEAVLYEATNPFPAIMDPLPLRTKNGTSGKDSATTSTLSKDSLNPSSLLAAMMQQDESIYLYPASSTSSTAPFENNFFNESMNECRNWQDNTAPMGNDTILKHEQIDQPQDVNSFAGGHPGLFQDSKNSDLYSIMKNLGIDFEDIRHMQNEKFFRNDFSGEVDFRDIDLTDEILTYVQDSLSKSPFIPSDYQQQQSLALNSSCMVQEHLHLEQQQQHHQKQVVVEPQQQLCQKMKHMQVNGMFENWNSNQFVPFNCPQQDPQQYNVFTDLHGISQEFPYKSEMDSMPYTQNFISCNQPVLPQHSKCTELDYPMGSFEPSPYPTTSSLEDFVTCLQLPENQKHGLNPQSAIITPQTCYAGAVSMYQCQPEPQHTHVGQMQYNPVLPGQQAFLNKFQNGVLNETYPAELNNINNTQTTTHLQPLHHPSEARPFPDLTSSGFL
Description: LS-180 cells stably transfected with a CYP1A1 promoter-linked beta-lactamase gene reporter construct (termed CYP1A1-bla LS-180 cells) were used to characterize the ability of compounds to activate AhR. In brief, AhR activity was measured using the LiveBLAzer assay kit which utilizes a beta lactamase (bla) reporter gene downstream of CYP1A1 promoter, which metabolizes its substrate to give a fluorescent readout. For the agonist assay, CYP1A1-bla LS-180 cells were treated with increasing concentrations of compound over a 100,000-fold concentration range.
CYP1A1-bla LS-180 cells in exponential growth phase were washed twice with DPBS then seeded into 96-well microplates (50,000 cells/well) and allowed to adhere. […] The LiveBLAzer FRET B/G β-lactamase substrate was added in the final hour of incubation and resulting blue/green fluorescence was measured using a 96-well microplate reader.
AhR activity was measured as a function of beta-lactamase expression using a fluorescence resonance energy transfer-based readout. TCDD and FICZ were used as controls to validate the system.

[3] = target: T1, AhR; conditions: value reported by Invitrogen; cited from earlier work
[4] = target: T2, CB2 (Homo sapiens, UniProt P34972); experiment: fluorescence-based agonist assay using genetically modified yeast; assay type: cell-based; conditions: read-out: CB2 pEC50 (converted)
T2 construct: expressed in transfected cells

[5] = test system: Nrf2; experiment: luciferase-based reporter assay for NQO1 gene expression; assay type: cell-based
[6] = oxygen radical absorbance capacity (ORAC) test; assay type: biochemical; conditions: Trolox Equivalent Values
[7] = test system: IL-17A; experiment: CD4+ T cell IL17 assay; assay type: cell-based, human
Description: Therefore, compounds are evaluated for their ability to reduce IL-17 production from CD4+ T cells stimulated under Th17-skewing conditions. Cryopreserved human CD4^+ T cells (AllCells, LLC, Alameda, CA and Stemcell Technologies, Inc. Vancouver, Canada) were differentiated to the Th17 subtype by culturing for 5 days in CD3-coated tissue culture plates (2 μg/mL) in Iscove's modified Dulbecco's medium (IMDM) containing 10% HI-FBS, 55 μM 2-mercaptoethanol and soluble anti-CD28 (3 μg/mL) in the presence of a Th17 skewing cocktail, [IL-1β (10 ng/mL), IL-6 (30 ng/mL), TGFβ (0.5 ng/mL), IL-21 (10 ng/mL), IL-23 (10 ng/mL), anti-IFNγ (10 μg/mL) and anti-IL-4 (10 μg/mL)] in the presence or absence of serially diluted compounds. Secretion of IL-17 from polarized CD4+ T-cells was measured in the culture media using an MSD (Meso Scale Discovery) detection system following 5 day exposure toTh17 polarization reagents with and without compounds.

T2 sequence (P34972 whole entry, species assumed): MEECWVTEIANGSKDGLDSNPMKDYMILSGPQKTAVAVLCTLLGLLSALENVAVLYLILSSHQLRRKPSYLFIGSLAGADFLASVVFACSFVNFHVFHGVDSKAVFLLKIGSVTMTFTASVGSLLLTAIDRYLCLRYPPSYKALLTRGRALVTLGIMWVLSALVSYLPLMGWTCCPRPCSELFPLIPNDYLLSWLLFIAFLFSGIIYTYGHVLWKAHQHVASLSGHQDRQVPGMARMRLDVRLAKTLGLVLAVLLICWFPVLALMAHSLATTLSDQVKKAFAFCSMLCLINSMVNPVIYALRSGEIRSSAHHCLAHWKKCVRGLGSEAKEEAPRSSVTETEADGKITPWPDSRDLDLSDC

| EC50 [4] | Nrf2 pEC50 [5] | IC50 ([7]; T-cell, MSD-based readout of secreted IL-17A from Th17-polarized primary human CD4+ peripheral blood T cells, read-out: IL-17A pIC50 (converted)) | Molecule | sIL-17 in BioMAP [1] | pEC50 [2] | pEC50 reported by Invitrogen [3] | Hydroxyl-radical [6] | Peroxyl radical-hydro [6] | Peroxyl radical-lipo [6] | Peroxynitrite [6] | Singlet oxygen [6] | Superoxide anion [6] | Total ORAC value [6] | IL-17A production ([7]; Th17-skewing conditions, applied throughout culture) |
| --- | --- | --- | --- | --- | --- | --- | --- | --- | --- | --- | --- | --- | --- | --- |
|  |  |  | 6-formylindolo(3,2-b)carbazole [FICZ, reference compound] | not seen | 6.82 |  |  |  |  |  |  |  |  |  |
|  |  |  | Clc1cc2c(cc1Cl)Oc1cc(Cl)c(Cl)cc1O2 [TCDD] |  | 10.34 | 9.70 |  |  |  |  |  |  |  |  |
| 158 nM | pEC50 = 7.6 | 3.16 nM | CC(C)c1c(O)cc(/C=C/c2ccccc2)cc1O [tapinarof] | not seen |  |  | 1067 TEV | 4663 TEV | 2164 TEV | 140 TEV | 3581 TEV | 11241 TEV | 22855 TEV | suppression of IL-17A |
